From ChEMBL document CHEMBL4477272, “Toward chelerythrine optimization: Analogues designed by molecular simplification exhibit selective growth inhibition in non-small-cell lung cancer cells” (Bioorg Med Chem, 2016)
Calls of active or inactive are those of the source. The calls are words filed in the database; no cut-off is given here.

Legend:
A549 [1] = experiment: Cytotoxicity against human A549 cells assessed as reduction in cell viability after 24 hrs by MTT assay; assay type: functional, cell-based; conditions: A549, 24 h
NCI-H1299 [2] = experiment: Cytotoxicity against human NCI-H1299 cells assessed as reduction in cell viability after 24 hrs by MTT assay; assay type: functional, cell-based; conditions: NCI-H1299, 24 h
NCI-H292 = experiment: Cytotoxicity against human NCI-H292 cells assessed as reduction in cell viability after 24 hrs by MTT assay; assay type: functional, cell-based; conditions: NCI-H292, 24 h
NCI-H460 = experiment: Cytotoxicity against human NCI-H460 cells assessed as reduction in cell viability after 24 hrs by MTT assay; assay type: functional, cell-based; conditions: NCI-H460, 24 h
HUVEC = experiment: Cytotoxicity against HUVEC assessed as reduction in cell viability after 24 hrs by MTT assay; assay type: cell-based; conditions: Homo sapiens
[3] = Cytotoxicity against human LL24 cells assessed as reduction in cell viability after 24 hrs by MTT assay; assay type: cell-based; conditions: LL24, 24 h
[4] = Selectivity index, ratio of IC50 for HUVEC to IC50 for human NCI-H1299 cells; assay type: toxicity; conditions: HUVEC versus NCI-H1299 cells, read-out: Ratio IC50
[5] = Selectivity index, ratio of IC50 for human LL24 cells to IC50 for human NCI-H1299 cells
[6] = Selectivity index, ratio of IC50 for HUVEC to IC50 for human A549 cells; assay type: toxicity; conditions: HUVEC versus A549 cells, read-out: Ratio IC50
[7] = Selectivity index, ratio of IC50 for human LL24 cells to IC50 for human A549 cells
[8] = Selectivity index, ratio of IC50 for HUVEC to IC50 for human NCI-H292 cells
[9] = Selectivity index, ratio of IC50 for human LL24 cells to IC50 for human NCI-H292 cells
[10] = Selectivity index, ratio of IC50 for HUVEC to IC50 for human NCI-H460 cells; assay type: toxicity; conditions: HUVEC versus NCI-H460 cells, read-out: Ratio IC50
[11] = Selectivity index, ratio of IC50 for human LL24 cells to IC50 for human NCI-H460 cells
A549 [12] = experiment: Cytostatic activity against human A549 cells assessed as inhibition of colony formation after 24 hrs measured after 10 days by crystal violet staining based method; assay type: functional, cell-based
NCI-H1299 [13] = experiment: Cytostatic activity against human NCI-H1299 cells assessed as inhibition of colony formation after 24 hrs measured after 10 days by crystal violet staining based method; assay type: functional, cell-based
A549 [14] = experiment: Cell cycle arrest in human A549 cells assessed as accumulation at G0/G1 phase at 100 uM after 24 hrs by propidium iodide staining based flow cytometry (reference value: 33.4%); assay type: functional
A549 [15] = experiment: Cell cycle arrest in human A549 cells assessed as accumulation at G0/G1 phase at 75 uM after 24 hrs by propidium iodide staining based flow cytometry (reference value: 33.4%); assay type: functional
A549 [16] = experiment: Cell cycle arrest in human A549 cells assessed as accumulation at G0/G1 phase at 50 uM after 24 hrs by propidium iodide staining based flow cytometry (reference value: 33.4%); assay type: functional
A549 [17] = experiment: Cell cycle arrest in human A549 cells assessed as accumulation at G0/G1 phase after 24 hrs by propidium iodide staining based flow cytometry; assay type: functional
A549 [18] = experiment: Cell cycle arrest in human A549 cells assessed as decrease in S phase at 50 to 100 uM after 24 hrs by propidium iodide staining based flow cytometry; assay type: functional
A549 [19] = experiment: Cell cycle arrest in human A549 cells assessed as decrease in G2/M phase at 50 to 100 uM after 24 hrs by propidium iodide staining based flow cytometry; assay type: functional
NCI-H1299 [20] = experiment: Cell cycle arrest in human NCI-H1299 cells assessed as accumulation at G0/G1 phase at 100 uM after 24 hrs by propidium iodide staining based flow cytometry (reference value: 39%); assay type: functional
NCI-H1299 [21] = experiment: Cell cycle arrest in human NCI-H1299 cells assessed as accumulation at G0/G1 phase at 75 uM after 24 hrs by propidium iodide staining based flow cytometry (reference value: 39%); assay type: functional
NCI-H1299 [22] = experiment: Cell cycle arrest in human NCI-H1299 cells assessed as accumulation at G0/G1 phase at 50 uM after 24 hrs by propidium iodide staining based flow cytometry (reference value: 39%); assay type: functional
NCI-H1299 [23] = experiment: Cell cycle arrest in human NCI-H1299 cells assessed as accumulation at G0/G1 phase after 24 hrs by propidium iodide staining based flow cytometry; assay type: functional
NCI-H1299 [24] = experiment: Cell cycle arrest in human NCI-H1299 cells assessed as accumulation at S phase at 100 uM after 24 hrs by propidium iodide staining based flow cytometry (reference value: 7.8%); assay type: functional
NCI-H1299 [25] = experiment: Cell cycle arrest in human NCI-H1299 cells assessed as accumulation at S phase at 75 uM after 24 hrs by propidium iodide staining based flow cytometry (reference value: 7.8%); assay type: functional
NCI-H1299 [26] = experiment: Cell cycle arrest in human NCI-H1299 cells assessed as accumulation at S phase at 50 uM after 24 hrs by propidium iodide staining based flow cytometry (reference value: 7.8%); assay type: functional

SMILES | IC50 (A549 [1]) [µM] | IC50 (NCI-H1299 [2]) [µM] | IC50 (NCI-H292) [µM] | IC50 (NCI-H460) [µM] | IC50 (HUVEC) [µM] | IC50 [3] [µM] | selectivity ratio [4] | Ratio IC50 [5] | selectivity ratio [6] | Ratio IC50 [7] | also measured
COc1ccc(CN(C)Cc2ccc3c(c2)OCO3)cc1OC | > 200 | > 200 | > 200 | > 200 | > 200 | > 200 | – | – | – | – | –
COc1ccc(CN(C)Cc2ccc3c(c2)OCO3)cc1.Cl | > 200 | 76.4 | > 200 | > 200 | > 200 | > 200 | > 2.62 | >2.62 | – | – | –
COc1cc(CN(C)Cc2ccc3c(c2)OCO3)cc(OC)c1OC | > 200 | > 200 | > 200 | > 200 | > 200 | > 200 | – | – | – | – | –
COc1ccc(CNCc2ccc3c(c2)OCO3)cc1OC.Cl | 118 | 92.3 | > 200 | > 200 | > 200 | > 200 | > 2.17 | >2.17 | > 1.69 | >1.69 | –
COc1cc(CNCc2ccc3c(c2)OCO3)cc(OC)c1OC.Cl | > 200 | 107 | > 200 | > 200 | > 200 | > 200 | > 1.88 | >1.88 | – | – | –
CN(Cc1ccccc1)Cc1ccc2c(c1)OCO2.Cl | > 200 | 91.2 | > 200 | > 200 | > 200 | > 200 | > 2.19 | >2.19 | – | – | –
COc1ccc(CNCc2ccc3c(c2)OCO3)cc1.Cl | 124 | 73.7 | 153 | > 200 | > 200 | > 200 | > 2.71 | >2.71 | > 1.61 | >1.61 | Ratio IC50 [8]: >1.31; Ratio IC50 [9]: >1.31
Cl.c1ccc(CNCc2ccc3c(c2)OCO3)cc1 | > 200 | 67.2 | > 200 | > 200 | > 200 | > 200 | > 2.98 | >2.98 | – | – | –
COc1ccc2c(c[n+](C)c3c4cc5c(cc4ccc23)OCO5)c1OC [CHELERYTHRINE] | 7.73 | 4.28 | 4.96 | 5.14 | 4.93 | 3.73 | 1.15 | 0.87 | 0.64 | 0.48 | Ratio IC50 [8]: 0.99; selectivity ratio [10]: 0.96; Ratio IC50 [9]: 0.75; Ratio IC50 [11]: 0.73
COc1ccc(CNCc2ccc3c(c2)OCO3)cc1O | > 200 | > 200 | > 200 | > 200 | > 200 | > 200 | – | – | – | – | –
Cl.Oc1ccc(CNCc2ccc3c(c2)OCO3)cc1O | 112 | > 200 | > 200 | > 200 | > 200 | > 200 | – | – | > 1.78 | >1.78 | inhibition (A549 [12]): Dose-dependent effect; inhibition (NCI-H1299 [13]): Dose-dependent effect; Activity (A549 [14]): 54.3%; Activity (A549 [15]): 49.6%; Activity (A549 [16]): 45.9%; Activity (A549 [17]): Dose-dependent effect; Activity (A549 [18]): Active; Activity (A549 [19]): Active; Activity (NCI-H1299 [20]): 55.8%; Activity (NCI-H1299 [21]): 65%; Activity (NCI-H1299 [22]): 53.5%; Activity (NCI-H1299 [23]): Dose-dependent effect; Activity (NCI-H1299 [24]): 17.7%; Activity (NCI-H1299 [25]): 20.4%; Activity (NCI-H1299 [26]): 26.8%
